Measurements from PubChem BioAssay AID1794804 (Yongcheng Song lab at Baylor College of Medicine, 2022).
One block for each molecule: values may come before it. The source made the active and inactive calls.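 Rule for the calls: active = inhibition above 55% when tested at 5 µM; inactive = the rest.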

Biological target: Protein AF-9 (Homo sapiens) (UniProt P42568)
Test: single-concentration AF9–DOT1L binding disruption – biochemical, AlphaLISA, percent inhibition, MBP-tagged AHD (AID 1794804)
Conditions: MBP-AF9 AHD / biotin-DOT1L peptide binding; for inhibition: stronger effect = higher value

Chain of Protein AF-9 (Homo sapiens) (P42568 whole entry, looked up): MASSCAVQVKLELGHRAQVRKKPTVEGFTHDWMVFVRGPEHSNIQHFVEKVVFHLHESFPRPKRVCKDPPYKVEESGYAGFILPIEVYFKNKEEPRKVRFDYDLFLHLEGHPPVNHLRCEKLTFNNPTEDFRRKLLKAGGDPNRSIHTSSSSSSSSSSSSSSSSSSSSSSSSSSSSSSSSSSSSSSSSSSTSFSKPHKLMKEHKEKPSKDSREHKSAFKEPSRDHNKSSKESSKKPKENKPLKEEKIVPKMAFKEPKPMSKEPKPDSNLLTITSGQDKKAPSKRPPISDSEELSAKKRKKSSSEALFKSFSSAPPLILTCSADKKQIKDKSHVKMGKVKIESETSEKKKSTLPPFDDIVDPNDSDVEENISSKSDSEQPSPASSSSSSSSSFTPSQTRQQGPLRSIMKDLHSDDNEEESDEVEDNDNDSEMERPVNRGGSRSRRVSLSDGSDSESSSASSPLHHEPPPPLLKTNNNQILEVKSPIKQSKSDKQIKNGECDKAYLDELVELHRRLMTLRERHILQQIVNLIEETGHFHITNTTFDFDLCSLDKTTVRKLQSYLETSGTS

SMILES: O=C(NCC1CCNCC1)c1cc2ccc(-c3ccc(C(=O)N4CCC(N5CCCCC5)CC4)cc3)cc2s1
inhibition (at 5 µM): 0% (inactive)

SMILES: O=C(NCC1CCNCC1)c1cc2ccc(-c3ccc(C(=O)N4CCCCC4)cc3)cc2s1
inhibition (at 5 µM): 8% (inactive)

SMILES: O=C(NCC1CCNCC1)c1cc2ccc(-c3ccc(N4CCNCC4)cc3)cc2[nH]1
outcome: inactive
inhibition (inhibition, at 20 µM): 48%

SMILES: CC(C)(C)c1ccc(-c2ccc3[nH]c(C(=O)NCC4CCNCC4)cc3c2)cc1
inhibition (at 5 µM): 13% (inactive)

SMILES: O=C(NCC1CCNCC1)c1cc2ccc(-c3ccsc3)cc2[nH]1
inhibition (at 5 µM): 10% (inactive)

SMILES: CC(C)(C)c1ccc(-c2ccc3sc(C(=O)NCC4CCNCC4)cc3c2)cc1
outcome: inactive
inhibition (inhibition, at 20 µM): 59%

SMILES: O=C(NCC1CCNCC1)c1cc2cc(-c3ccc(C(=O)N4CCCC4)cc3)ccc2s1
inhibition (at 5 µM): 0% (inactive)

SMILES: O=C(NCC1CCNCC1)c1cc2ccc(-c3ccc(C4CCCCC4)cc3)cc2[nH]1
inhibition (at 5 µM): 31% (inactive)

SMILES: O=C(NCC1CCNCC1)c1cc2ccc(-c3ccc(OC(F)(F)F)cc3)cc2s1
inhibition (at 5 µM): 14% (inactive)

SMILES: O=C(NCC1CCNCC1)c1cc2ccc(-c3ccc(N4CCOCC4)cc3)cc2[nH]1
inhibition (at 5 µM): 29% (inactive)

SMILES: O=C(NCC1CCNCC1)c1cc2cc(-c3ccc(C(=O)N4CCCCC4)cc3)ccc2s1
inhibition (at 5 µM): 31% (inactive)

SMILES: O=C(NCC1CCNCC1)c1cc2cc(-c3ccc(N4CCOCC4)cc3)ccc2[nH]1
inhibition (at 5 µM): 52% (inactive)

SMILES: O=C(NCC1CCNCC1)c1cc2ccc(Oc3ccc(Oc4ccc(Cl)cc4)cc3)cc2s1
inhibition (at 5 µM): 50% (inactive)

SMILES: O=C(NCC1CCNCC1)c1cc2ccc(N3CCC(N4CCCCC4)CC3)cc2s1
inhibition (at 5 µM): 14% (inactive)

SMILES: N#Cc1ccc(-c2ccc3[nH]c(C(=O)NCC4CCNCC4)cc3c2)cc1F
inhibition (at 5 µM): 8% (inactive)

SMILES: O=C(NCC1CCNCC1)c1cc2cc(-c3ccc(N4CCNCC4)cc3)ccc2[nH]1
inhibition (at 5 µM): 36% (inactive)

SMILES: CC(C)(C)c1ccc(Nc2ccc3sc(C(=O)NCC4CCNCC4)cc3c2)cc1
inhibition (at 5 µM): 45% (inactive)

SMILES: O=C(NCC1CCNCC1)c1cc2ccc(-c3ccc(CN4CCCCC4)cc3)cc2s1
inhibition (at 5 µM): 45% (inactive)

SMILES: O=C(NCC1CCNCC1)c1c[nH]c2ccc(-c3ccc(N4CCCCC4)cc3)cc12
inhibition (at 5 µM): 43% (inactive)

SMILES: N#Cc1ccc(-c2ccc3cc(C(=O)NCC4CCNCC4)sc3c2)cc1F
inhibition (at 5 µM): 26% (inactive)

SMILES: O=C(NCC1CCNCC1)c1cc2ccc(-c3ccc(C(=O)N4CCCC4)cc3)cc2s1
inhibition (at 5 µM): 0% (inactive)

SMILES: O=C(NCC1CCNCC1)c1cc2cc(Nc3ccc(OC(F)(F)F)cc3)ccc2s1
inhibition (at 5 µM): 24% (inactive)

SMILES: CCN(CC)c1ccc(-c2ccc3cc(C(=O)NCC4CCNCC4)sc3c2)cc1
inhibition (at 5 µM): 25% (inactive)

SMILES: O=C(NCC1CCNCC1)c1cc2ccc(-c3ccc(N4CCOCC4)cc3)cc2s1
inhibition (at 5 µM): 40% (inactive)

SMILES: O=C(NCC1CCNCC1)c1coc2cc(-c3ccc(N4CCCCC4)cc3)ccc12
inhibition (at 5 µM): 59%

SMILES: Cc1cc(C#N)ccc1-c1ccc2[nH]c(C(=O)NCC3CCNCC3)cc2c1
inhibition (at 5 µM): 0% (inactive)

SMILES: O=C(NCC1CCNCC1)c1cc2ccc(N3CCC(N4CCCC4)CC3)cc2s1
inhibition (at 5 µM): 20% (inactive)

SMILES: O=C(NCC1CCNCC1)c1cc2ccc(-c3ccc(C(=O)N4CCC(N5CCCC5)CC4)cc3)cc2s1
inhibition (at 5 µM): 5% (inactive)

The next lines start with the values.

inhibition (at 5 µM): 0% (inactive)
SMILES: CC(=O)Nc1ccc(-c2ccc3cc(C(=O)NCC4CCNCC4)sc3c2)cc1

inhibition (at 5 µM): 11% (inactive)
SMILES: NCc1ccc(-c2ccc3cc(C(=O)NCC4CCNCC4)[nH]c3c2)cc1

inhibition (at 5 µM): 50% (inactive)
SMILES: N#CCc1ccc(-c2ccc3cc(C(=O)NCC4CCNCC4)sc3c2)cc1

inhibition (at 5 µM): 93%
SMILES: O=C(NCC1CCNCC1)c1cc2ccc(Nc3ccc(N4CCCCC4)cc3)cc2o1

inhibition (at 5 µM): 33% (inactive)
SMILES: O=C(NCC1CCNCC1)c1cc2ccc(-c3ccc4c(c3)OCCO4)cc2o1

inhibition (at 5 µM): 0% (inactive)
SMILES: O=C(NCC1CCNCC1)c1cc2ccc(-c3ccc(C(=O)N4CCCCCC4)cc3)cc2o1

inhibition (at 5 µM): 43% (inactive)
SMILES: COc1ccc(-c2ccc3cc(C(=O)NCC4CCNCC4)sc3c2)cc1

inhibition (at 5 µM): 0% (inactive)
SMILES: O=C(NCC1CCNCC1)c1cc2ccc(-c3ccc(C(=O)N4CCC(N5CCCCC5)CC4)cc3)cc2o1

outcome: inactive
inhibition (inhibition, at 20 µM): 38%
SMILES: N#Cc1ccc(-c2ccc3cc(C(=O)NCC4CCNCC4)oc3c2)cc1

outcome: inactive
inhibition (inhibition, at 20 µM): 30%
SMILES: N#Cc1ccc(-c2ccc3sc(C(=O)NCC4CCNCC4)cc3c2)cc1

inhibition (at 5 µM): 40% (inactive)
SMILES: O=C(NCC1CCNCC1)c1cc2ccc(-c3ccc(N4CCOCC4)cc3)cc2o1

inhibition (at 5 µM): 24% (inactive)
SMILES: COc1ccc(Oc2ccc3cc(C(=O)NCC4CCNCC4)oc3c2)cc1

outcome: inactive
inhibition (inhibition, at 20 µM): 54%
SMILES: O=C(NCC1CCNCC1)c1cc2ccc(-c3ccc(C4CCCCC4)cc3)cc2o1

inhibition (at 5 µM): 37% (inactive)
SMILES: CC(=O)c1ccc(-c2ccc3cc(C(=O)NCC4CCNCC4)[nH]c3c2)cc1

inhibition (at 5 µM): 0% (inactive)
SMILES: N#Cc1cccc(-c2ccc3cc(C(=O)NCC4CCNCC4)[nH]c3c2)c1

inhibition (at 5 µM): 27% (inactive)
SMILES: O=C(NCc1ccc(-c2ccc3cc(C(=O)NCC4CCNCC4)oc3c2)cc1)OCc1ccccc1

inhibition (at 5 µM): 0% (inactive)
SMILES: O=C(NCC1CCNCC1)c1cc2ccc(-c3ccc(-c4ccccc4)cc3)cc2o1

inhibition (at 5 µM): 19% (inactive)
SMILES: CS(=O)(=O)c1ccc(-c2ccc3cc(C(=O)NCC4CCNCC4)oc3c2)cc1

inhibition (at 5 µM): 0% (inactive)
SMILES: O=C(NCC1CCNCC1)c1cc2ccc(-c3ccc(O)cc3)cc2s1

inhibition (at 5 µM): 20% (inactive)
SMILES: O=C(NCC1CCNCC1)c1cc2ccc(Oc3ccc(Oc4ccc(Cl)cc4)cc3)cc2o1

inhibition (at 5 µM): 32% (inactive)
SMILES: CN1CCN(c2ccc(-c3ccc4cc(C(=O)NCC5CCNCC5)oc4c3)cc2)CC1

inhibition (at 5 µM): 0% (inactive)
SMILES: O=C(NCC1CCNCC1)c1cc2ccc(-c3ccc(CO)cc3)cc2s1

inhibition (at 5 µM): 0% (inactive)
SMILES: O=C(NCC1CCNCC1)c1cc2ccc(-c3ccc(C(=O)N4CCCCC4)cc3)cc2o1

outcome: inactive
inhibition (inhibition, at 20 µM): 49%
SMILES: O=C(NCC1CCNCC1)c1cc2ccc(-c3cccc(-c4ccccc4)c3)cc2o1

outcome: inactive
inhibition (inhibition, at 20 µM): 70%
SMILES: CC(C)(C)c1ccc(-c2ccc3cc(C(=O)NCC4CCNCC4)sc3c2)cc1

inhibition (at 5 µM): 1% (inactive)
SMILES: O=C(NCC1CCNCC1)c1cc2ccc(-c3ccc(C(=O)N4CCCC4)cc3)cc2o1

inhibition (at 5 µM): 49% (inactive)
SMILES: CS(=O)(=O)c1ccc(-c2ccc3cc(C(=O)NCC4CCNCC4)sc3c2)cc1

inhibition (at 5 µM): 50% (inactive)
SMILES: O=C(NCC1CCNCC1)c1cc2ccc(-c3ccc(Cl)cc3)cc2s1

inhibition (at 5 µM): 21% (inactive)
SMILES: O=C(NCC1CCNCC1)c1cc2ccc(-c3ccc(F)cc3)cc2s1

inhibition (at 5 µM): 14% (inactive)
SMILES: O=C(NCC1CCNCC1)c1cc2cc(-c3ccc(-c4ccsc4)cc3)ccc2[nH]1

inhibition (at 5 µM): 30% (inactive)
SMILES: CCN(CC)c1ccc(-c2ccc3cc(C(=O)NCC4CCNCC4)oc3c2)cc1

inhibition (at 5 µM): 0% (inactive)
SMILES: NC(=O)c1ccc(-c2ccc3cc(C(=O)NCC4CCNCC4)sc3c2)cc1

inhibition (at 5 µM): 23% (inactive)
SMILES: O=C(NCC1CCNCC1)c1cc2ccc(Nc3ccc(OC(F)(F)F)cc3)cc2o1

inhibition (at 5 µM): 17% (inactive)
SMILES: CC(C)(C)c1cccc(-c2ccc3cc(C(=O)NCC4CCNCC4)[nH]c3c2)c1

outcome: inactive
inhibition (inhibition, at 20 µM): 22%
SMILES: O=C(NCC1CCNCC1)c1cc2ccc(-c3ccc(CCO)cc3)cc2[nH]1

inhibition (at 5 µM): 47% (inactive)
SMILES: Cc1ccc(-c2ccc3cc(C(=O)NCC4CCNCC4)sc3c2)cc1

inhibition (at 5 µM): 38% (inactive)
SMILES: O=C(NCC1CCNCC1)c1cc2ccc(-c3ccc(N4CCNCC4)cc3)cc2o1
